Laboratory results from PMC9541272, “Carba Analogues of Flupirtine and Retigabine with Improved Oxidation Resistance and Reduced Risk of Quinoid Metabolite Formation” (Chemmedchem, 2022).
Entries after “also recorded” stand apart in the source; their conditions may differ. Like-named read-outs stand apart in the source and are kept apart here.

Tests used:
[1] = Cyclic voltammetry, anodic peak potential (oxidizability); assay type: physicochemical; conditions: 0.1 M Tris‐HCl buffer pH 7.4, −0.5 to 1.0 V, sweep rate 0.1 V/s, –[b] = no oxidation observed in the specified potential range
[2] = test system: HEP‐G2 human hepatoma cell line
[3] = LogD7.4 estimation by HPLC-based method; assay type: physicochemical; conditions: for logD7.4 (single determination): calculated from retention time with one calibration function (A–F)
Protocol: The logarithm of the capacity factors of the reference substances was then plotted against the corresponding logP values taken from the mentioned guideline to obtain a calibration function. For non‐ionizable compounds like the reference substances used for calibration, logP values can be considered equivalent to the logD 7.4 values. To obtain a reference mixture, 2 mg of the reference substances were each dissolved in 1 mL of methanol, and 50 μL aliquots of each reference solution were subsequently combined. The reference mixture was measured before and after the substances to be tested, and the mean retention time from both measurements was used to calculate the calibration function. The calibration function was then used to determine the logD 7.4 values from the corresponding retention times for each substance to be tested. The compounds of interest were injected as a solution in methanol (2 mg/mL), and the retention time was determined as the mean value from two measurements.

KV7.2/3 channel = KV7.2/3 channel (Homo sapiens, UniProt O43525+O43526); assay: KV7.2/3 channel opening activity, thallium-flux FLIPR Potassium Assay in HEK-293 cells overexpressing KV7.2/3; parameters: Emax: dose or concentration left out as unconfirmed; conditions: for Emax: HEK293E, read-out: Efficacy
[4] = test system: TAMH mouse liver cell line
[5] = pH 7.4, calculated from retention time with one calibration function (A–F), Table S7, read-out: logD7.4 (single determination)
[6] = pH 7.4, estimated by HPLC-based method, pH 7.4, read-out: LogD 7.4
[7] = HEK‐293 cells overexpressing KV7.2/3
[8] = KV7.2/3 opening, ratio of EC50 values
[9] = HEP‐G2, MTT assay, 24 h exposure

Sequence of KV7.2/3 channel (O43525 whole entry): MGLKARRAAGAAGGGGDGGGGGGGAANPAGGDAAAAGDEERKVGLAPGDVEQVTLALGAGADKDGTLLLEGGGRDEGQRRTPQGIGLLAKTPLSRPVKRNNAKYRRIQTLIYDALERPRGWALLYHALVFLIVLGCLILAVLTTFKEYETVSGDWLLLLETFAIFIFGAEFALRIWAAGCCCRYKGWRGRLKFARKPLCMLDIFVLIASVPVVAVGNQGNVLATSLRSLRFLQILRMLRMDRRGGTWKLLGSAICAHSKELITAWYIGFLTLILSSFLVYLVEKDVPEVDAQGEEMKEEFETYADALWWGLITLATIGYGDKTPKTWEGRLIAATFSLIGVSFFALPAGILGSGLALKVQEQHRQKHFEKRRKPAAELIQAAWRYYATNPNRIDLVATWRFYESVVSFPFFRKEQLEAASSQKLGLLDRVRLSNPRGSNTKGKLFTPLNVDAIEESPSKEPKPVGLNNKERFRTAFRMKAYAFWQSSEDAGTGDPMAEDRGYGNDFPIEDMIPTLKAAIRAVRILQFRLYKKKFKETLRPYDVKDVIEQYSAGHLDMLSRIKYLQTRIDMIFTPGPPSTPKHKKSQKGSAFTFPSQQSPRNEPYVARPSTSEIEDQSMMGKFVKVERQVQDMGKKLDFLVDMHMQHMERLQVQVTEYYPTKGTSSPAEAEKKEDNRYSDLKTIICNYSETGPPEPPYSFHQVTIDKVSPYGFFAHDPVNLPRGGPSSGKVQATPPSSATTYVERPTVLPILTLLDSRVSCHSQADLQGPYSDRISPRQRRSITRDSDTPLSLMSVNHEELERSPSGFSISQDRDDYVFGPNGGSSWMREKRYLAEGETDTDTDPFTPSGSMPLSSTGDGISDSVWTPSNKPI
Sequence of KV7.2/3 channel (O43526 whole entry): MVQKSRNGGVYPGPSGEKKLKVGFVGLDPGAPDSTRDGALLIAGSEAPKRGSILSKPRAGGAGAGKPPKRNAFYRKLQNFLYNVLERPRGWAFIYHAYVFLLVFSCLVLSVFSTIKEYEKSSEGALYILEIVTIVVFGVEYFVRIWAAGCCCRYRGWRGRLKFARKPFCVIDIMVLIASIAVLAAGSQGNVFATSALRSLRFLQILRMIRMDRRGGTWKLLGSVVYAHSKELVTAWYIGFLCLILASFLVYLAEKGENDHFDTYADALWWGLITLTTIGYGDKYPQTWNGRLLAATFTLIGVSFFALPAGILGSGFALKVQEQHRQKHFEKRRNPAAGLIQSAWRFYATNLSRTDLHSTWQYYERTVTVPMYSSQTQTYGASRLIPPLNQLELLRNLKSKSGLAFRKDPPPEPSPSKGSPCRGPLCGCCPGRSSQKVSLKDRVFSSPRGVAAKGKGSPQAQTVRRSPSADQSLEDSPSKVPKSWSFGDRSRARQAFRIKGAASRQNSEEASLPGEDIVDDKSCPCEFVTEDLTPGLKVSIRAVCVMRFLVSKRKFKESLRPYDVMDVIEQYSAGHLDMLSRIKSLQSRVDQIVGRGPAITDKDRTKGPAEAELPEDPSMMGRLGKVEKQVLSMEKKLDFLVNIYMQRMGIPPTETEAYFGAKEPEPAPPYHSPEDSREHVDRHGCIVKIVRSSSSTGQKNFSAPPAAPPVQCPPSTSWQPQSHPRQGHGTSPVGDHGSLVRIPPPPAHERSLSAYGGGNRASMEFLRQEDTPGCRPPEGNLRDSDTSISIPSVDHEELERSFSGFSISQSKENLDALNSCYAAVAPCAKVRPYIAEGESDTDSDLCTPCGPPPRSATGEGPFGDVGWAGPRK

Compound: CCCC(=O)Nc1c(C)cc(CNc2ccc(F)cc2)cc1C [35 a, N ‐(4‐{[(4‐Fluorophenyl)amino]methyl}‐2,6‐dimethylphenyl)butyramide]
- Ep.a. (anodic peak potential) [1]: 633 mV
- LD50 (concentration to reduce cell viability by 50 %) ([2]; human, 24 h): >125 µM
- logD7.4 (single determination) ([3]; Table S7): 3.023
- chromatographic logD [3, 5]: 3.04
- chromatographic logD [3, 6]: 3
- EC50 (KV7.2/3 channel): 143 ± 20 nM
- Emax (KV7.2/3 channel): 143 ± 7%
- KV7.2/3 opening activity (in words) (KV7.2/3 channel; [7]): submicromolar activity
- fold increase in potency compared to 35 b (KV7.2/3 channel; [8]): 4.7 fold
- LD50 (concentration to reduce cell viability by 50 %) ([4]; mouse, 24 h): >125 µM

Compound: CCCC(=O)Nc1ccc(CNc2ccc(F)cc2)cc1C [35 b, N ‐(4‐{[(4‐Fluorophenyl)amino]methyl}‐2‐methylphenyl)butyramide]
- Ep.a. (anodic peak potential) [1]: 618 mV
- LD25 (concentration to reduce cell viability by 25 %) ([2]; human, 24 h): 88 ± 9 µM
- LD50 (concentration to reduce cell viability by 50 %) ([2]; human, 24 h): >125 µM
- logD7.4 (single determination) ([3]; Table S7): 2.870
- chromatographic logD [3, 5]: 2.88
- chromatographic logD [3, 6]: 2.9
- EC50 (KV7.2/3 channel): 675 ± 276 nM
- Emax (KV7.2/3 channel): 176 ± 14%
- LD25 (concentration to reduce cell viability by 25 %) ([4]; mouse, 24 h): >125 µM
- LD50 (concentration to reduce cell viability by 50 %) ([4]; mouse, 24 h): >125 µM

Compound: CCCC(=O)Nc1ccc(CNc2ccc(F)cc2)cc1F [35 c, N ‐(2‐Fluoro‐4‐{[(4‐fluorophenyl)amino]methyl}phenyl)butyramide]
- Ep.a. (anodic peak potential) [1]: 643 mV
- LD25 (concentration to reduce cell viability by 25 %) ([2]; human, 24 h): >63 µM
- LD50 (concentration to reduce cell viability by 50 %) ([2]; human, 24 h): >63 µM
- logD7.4 (single determination) ([3]; Table S7): 2.980
- chromatographic logD [3, 5]: 2.96
- chromatographic logD [3, 6]: 3
- EC50 (KV7.2/3 channel): 1510 ± 364 nM
- Emax (KV7.2/3 channel): 167 ± 16%
- LD25 (concentration to reduce cell viability by 25 %) ([4]; mouse, 24 h): >63 µM
- LD50 (concentration to reduce cell viability by 50 %) ([4]; mouse, 24 h): >63 µM

Compound: CCCC(=O)Nc1ccc(CNc2ccc(F)cc2)cc1C(F)(F)F.Cl [35 d, N ‐(4‐{[(4‐Fluorophenyl)amino]methyl}‐2‐(trifluoromethyl)phenyl)butyramide hydrochloride]
- Ep.a. (anodic peak potential) [1]: 663 mV
- LD25 (concentration to reduce cell viability by 25 %) ([2]; human, 24 h): 75 ± 17 µM
- LD50 (concentration to reduce cell viability by 50 %) ([2]; human, 24 h): >125 µM
- logD7.4 (single determination) ([3]; Table S7): 2.991
- chromatographic logD [3, 5]: 3
- chromatographic logD [3, 6]: 3
- EC50 (KV7.2/3 channel): 362 ± 93 nM
- Emax (KV7.2/3 channel): 156 ± 14%
- LD25 (concentration to reduce cell viability by 25 %) ([4]; mouse, 24 h): >125 µM
- LD50 (concentration to reduce cell viability by 50 %) ([4]; mouse, 24 h): >125 µM

Compound: Cc1cc(CNc2ccc(F)cc2F)ccc1NC(=O)c1cccnc1 [35 e, N ‐(4‐{[(2,4‐Difluorophenyl)amino]methyl}‐2‐methylphenyl)nicotinamide]
- Ep.a. (anodic peak potential) [1]: no anodic peak potential could be determined; also recorded: –^[b]
- LD25 (concentration to reduce cell viability by 25 %) ([2]; human, 24 h): 61 ± 7 µM
- LD50 (concentration to reduce cell viability by 50 %) ([2]; human, 24 h): 107 ± 16 µM
- logD7.4 (single determination) ([3]; Table S7): 2.952
- chromatographic logD [3, 5]: 2.97
- chromatographic logD [3, 6]: 3
- KV7.2/3 opening activity (in words) (KV7.2/3 channel; [7]): inactive
- EC50 (required concentration to reach half‐maximal KV7.2/3 channel opening activity) (KV7.2/3 channel; HEK‐293 cells overexpressing KV7.2/3, mean ± SD, at least three determinations, –[e] = inactive up to a concentration of 20 μM): –^[e]
- Efficacy (KV7.2/3 channel; maximal fluorescence signal relative to flupirtine (100 %), HEK‐293, –[e] = inactive up to a concentration of 20 μM): –^[e]
- LD25 (concentration to reduce cell viability by 25 %) ([4]; mouse, 24 h): 41 ± 11 µM
- LD50 (concentration to reduce cell viability by 50 %) ([4]; mouse, 24 h): >125 µM

Compound: CCCC(=O)Nc1ccc(CNc2ccc(C)cn2)cc1C [35 f, N ‐(2‐Methyl‐4‐{[(5‐methylpyridin‐2‐yl)amino]methyl}phenyl)butyramide]
- Ep.a. (anodic peak potential) [1]: 850 mV
- LD25 (concentration to reduce cell viability by 25 %) ([2]; human, 24 h): >125 µM
- LD50 (concentration to reduce cell viability by 50 %) ([2]; human, 24 h): >125 µM
- logD7.4 (single determination) ([3]; Table S7): 2.263
- chromatographic logD [3, 5]: 2.29
- chromatographic logD [3, 6]: 2.3
- EC50 (KV7.2/3 channel): 7860 ± 2170 nM
- Emax (KV7.2/3 channel): 70 ± 9%
- KV7.2/3 opening activity (in words) (KV7.2/3 channel; [7]): weakly active
- LD25 (concentration to reduce cell viability by 25 %) ([4]; mouse, 24 h): >125 µM
- LD50 (concentration to reduce cell viability by 50 %) ([4]; mouse, 24 h): >125 µM

Compound: CCCC(=O)Nc1ncc(CNc2ccc(F)cc2)cc1Br [42 a, N ‐(3‐Bromo‐5‐{[(4‐fluorophenyl)amino]methyl}pyridin‐2‐yl)butyramide]
- Ep.a. (anodic peak potential) [1]: 668 mV
- LD25 (concentration to reduce cell viability by 25 %) ([2]; human, 24 h): >63 µM
- LD50 (concentration to reduce cell viability by 50 %) ([2]; human, 24 h): >63 µM
- logD7.4 (single determination) ([3]; Table S7): 2.714
- chromatographic logD [3, 5]: 2.71
- chromatographic logD [3, 6]: 2.7
- EC50 (KV7.2/3 channel): 5450 ± 1700 nM
- Emax (KV7.2/3 channel): 163 ± 23%
- LD25 (concentration to reduce cell viability by 25 %) ([4]; mouse, 24 h): >63 µM
- LD50 (concentration to reduce cell viability by 50 %) ([4]; mouse, 24 h): >63 µM

Compound: CCCC(=O)Nc1ncc(CNc2ccc(F)cc2)cc1C [43 a, N ‐(5‐{[(4‐Fluorophenyl)amino]methyl}‐3‐methylpyridin‐2‐yl)butyramide]
- Ep.a. (anodic peak potential) [1]: 678 mV
- LD25 (concentration to reduce cell viability by 25 %) ([2]; human, 24 h): 46 ± 24 µM
- LD50 (concentration to reduce cell viability by 50 %) ([2]; human, 24 h): >125 µM
- logD7.4 (single determination) ([3]; Table S7): 2.341
- chromatographic logD [3, 5]: 2.33
- chromatographic logD [3, 6]: 2.3
- EC50 (KV7.2/3 channel): 4840 ± 2910 nM
- Emax (KV7.2/3 channel): 89 ± 32%
- LD25 (concentration to reduce cell viability by 25 %) ([4]; mouse, 24 h): 110 ± 54 µM
- LD50 (concentration to reduce cell viability by 50 %) ([4]; mouse, 24 h): >125 µM

Compound: Cc1cc(CNc2ccc(F)cc2)cnc1NC(=O)CC(C)(C)C [43 b, N ‐(5‐{[(4‐Fluorophenyl)amino]methyl}‐3‐methylpyridin‐2‐yl)‐3,3‐dimethylbutanamide]
- Ep.a. (anodic peak potential) [1]: 663 mV
- LD25 (concentration to reduce cell viability by 25 %) ([2]; human, 24 h): 66 ± 27 µM
- LD50 (concentration to reduce cell viability by 50 %) ([2]; human, 24 h): >125 µM
- logD7.4 (single determination) ([3]; Table S7): 3.039
- chromatographic logD [3, 5]: 3.03
- chromatographic logD [3, 6]: 3
- EC50 (KV7.2/3 channel): 677 ± 419 nM
- Emax (KV7.2/3 channel): 153 ± 12%
- KV7.2/3 opening activity (in words) (KV7.2/3 channel; [7]): submicromolar activity
- fold increase in potency compared to 43 a (KV7.2/3 channel; [8]): 7.2 fold
- LD25 (concentration to reduce cell viability by 25 %) ([4]; mouse, 24 h): >125 µM
- LD50 (concentration to reduce cell viability by 50 %) ([4]; mouse, 24 h): >125 µM

Compound: CCCC(=O)Nc1ncc(CNc2ccc(F)cc2)cc1C1CC1 [43 c, N ‐(3‐Cyclopropyl‐5‐{[(4‐fluorophenyl)amino]methyl}pyridin‐2‐yl)butyramide]
- Ep.a. (anodic peak potential) [1]: 678 mV
- LD25 (concentration to reduce cell viability by 25 %) ([2]; human, 24 h): 55 ± 17 µM
- LD50 (concentration to reduce cell viability by 50 %) ([2]; human, 24 h): >125 µM
- logD7.4 (single determination) ([3]; Table S7): 2.772
- chromatographic logD [3, 5]: 2.77
- chromatographic logD [3, 6]: 2.8
- EC50 (KV7.2/3 channel): 2020 ± 1200 nM
- Emax (KV7.2/3 channel): 138 ± 20%
- fold increase in potency compared to 43 a (KV7.2/3 channel; [8]): 2.4 fold
- increase in efficiency compared to 43 a (KV7.2/3 channel; difference of efficacy values): 49%
- LD25 (concentration to reduce cell viability by 25 %) ([4]; mouse, 24 h): 76 ± 52 µM
- LD50 (concentration to reduce cell viability by 50 %) ([4]; mouse, 24 h): >125 µM

Compound: CCOC(=O)Nc1ccc(NCc2ccc(F)cc2)cc1N [Ret, retigabine]
- Ep.a. (anodic peak potential) [1]: 260 mV
- LD25 (concentration to reduce cell viability by 25 %) [2, 9]: 269 ± 166 µM
- LD50 (concentration to reduce cell viability by 50 %) [2, 9]: >400 µM
- LD50 (concentration to reduce cell viability by 50 %) ([2]; HEP‐G2, MTT assay, 24 h exposure, listed as retigabine): above 400 μM
- EC50 (KV7.2/3 channel): 249 ± 52 nM
- Emax (KV7.2/3 channel): 119 ± 7%
- fold increase in potency compared to flupirtine (KV7.2/3 channel; [8]): 7 fold
- LD25 (concentration to reduce cell viability by 25 %) ([4]; TAMH, MTT assay, 24 h exposure): >400 µM
- LD50 (concentration to reduce cell viability by 50 %) ([4]; TAMH, MTT assay, 24 h exposure): >400 µM
- LD50 (concentration to reduce cell viability by 50 %) ([4]; TAMH, MTT assay, 24 h exposure, listed as retigabine): above 400 μM

Compound: CCOC(=O)Nc1ccc(CCc2ccc(F)cc2)nc1N [compound 7, Ethyl [2‐amino‐6‐(4‐fluorophenethyl)pyridin‐3‐yl]carbamate]
- Ep.a. (anodic peak potential) [1]: 628 mV
- LD25 (concentration to reduce cell viability by 25 %) ([2]; human, 24 h): 27 ± 16 µM
- LD50 (concentration to reduce cell viability by 50 %) ([2]; human, 24 h): >63 µM
- logD7.4 (single determination) ([3]; Table S7): 2.983
- chromatographic logD [3, 5]: 2.95
- chromatographic logD [3, 6]: 3
- EC50 (KV7.2/3 channel): > 10000 nM
- KV7.2/3 opening activity (in words) (KV7.2/3 channel; [7]): clearly less active than flupirtine
- LD25 (concentration to reduce cell viability by 25 %) ([4]; mouse, 24 h): 25 ± 7 µM
- LD50 (concentration to reduce cell viability by 50 %) ([4]; mouse, 24 h): >63 µM
